The source of these data is article PMC8290231 (Cancer Medicine, 2021).

The test system of data set [1] is FGFR1 signal pathway in Ba/F3‐FGFR1‐V561M. Description: Western blot of FGFR1 signal pathway. Type of data set: cell-based. Particulars: 300 nM. How it is done:
(§1) Cells were treated with different concentrations of compound or DMSO for indicated time. Then, cells were lysed with 1 × SDS sample lysis buffer (recommended by CST). […] After blocking with 5% BSA in TBST solution (0.5% Tween‐20) at room temperature for 4 hrs, the membranes were incubated with the corresponding primary antibody (1:2000–1:200) at 4℃ overnight. After washing with TBST for 3–5 times, the HRP‐conjugated secondary antibodies were incubated for 2 hrs. The protein signals were detected with Amersham Imager 600 system (GE, Boston, MA, USA) using an ECL western blotting detection kit (Thermo Fisher Scientific, Waltham, MA, USA).
Cell lysates were separated by sodium dodecyl sulfate‐polyacrylamide gel electrophoresis (SDS‐PAGE) and analyzed by western blot for phosphorylated FGFR1, FGFR1, phosphorylated FRS2, FRS2, phosphorylated AKT (Ser473), AKT, phosphorylated Erk, and Erk. GAPDH was used as a control
On the technique in general: Immunoblotting shows a protein as a band on a membrane.

Data set [2] has as its system MDA‐MB‐453. Put plainly: CCK-8 cell proliferation assay. Format: cell-based. Particulars: Homo sapiens, MDA-MB-453; FGFR4‐Y367C; CCK-8, 72 h; read-out: antiproliferative IC50, MDA‐MB‐453. How it is done:
(§2) The base medium for MDA‐MB‐453 cell line is DMEM medium (CORNING, USA). All other cell lines were cultured in RPMI‐1640 medium supplemented with 10% FBS, 100 U/ml of penicillin, and […] of streptomycin in 5% CO2 at 37℃. The cells in the logarithmic growth phase were used for the experiments.
(§3) Cells were seeded in 96‐well plate in complete medium (1000–6000 cells/well) and cultured for overnight. Then the cells were exposed to gradient concentrations (0.0005–10 μM) of compounds. Cell proliferation was analyzed by Cell Counting Kit 8 (CK04, Dojindo Laboratories, Japan) after co‐incubation for a further 72 h. IC50 values were calculated by fitting of concentration–response curves using GraphPad Prism 8.01 software. Each assay was repeated at least three times.
(§4) The expression and activation levels of FGFR1–4 in these cells were determined via western blot experiments (Figure S1).
Background: Formazan colour is commonly taken as a measure of viable cells.

Data set [3] deals with NCI‐H716. Description: CCK-8 cell proliferation assay. Format: cell-based. Particulars: Homo sapiens, NCI-H716; FGFR2 amplification; CCK-8, 72 h; read-out: antiproliferative IC50, NCI‐H716. On the procedure:
as §2, §3, §4

Data set [4] concerns H1581. Description: CCK-8 cell proliferation assay. Format: cell-based. Conditions: Homo sapiens, NCI-H1581; FGFR1 amplification; CCK-8, 72 h; read-out: antiproliferative IC50, H1581. On the procedure: as §2, §3, §4
Data set [5] deals with SNU16. Put plainly: CCK-8 cell proliferation assay. Type of data set: cell-based. Conditions: Homo sapiens, SNU-16; FGFR2 amplification; CCK-8, 72 h; read-out: antiproliferative IC50, SNU16. How it is done: as §2, §3, §4
The test system of data set [6] is KATOIII. Description: CCK-8 cell proliferation assay. Type of data set: cell-based. Particulars: Homo sapiens, KATO III; FGFR2 amplification; CCK-8, 72 h; read-out: antiproliferative IC50, KATOIII. On the procedure:
as §2, §3, §4

The test system of data set [7] is MKN‐1. Description: CCK-8 cell proliferation assay. Format: cell-based. Conditions: Homo sapiens, MKN-1; negative control; CCK-8, 72 h; read-out: antiproliferative IC50, MKN‐1. How it is done: as §2, §3, §4
The test system of data set [8] is RT112. Description: CCK-8 cell proliferation assay. Type of data set: cell-based. Conditions: Homo sapiens, RT-112; FGFR3‐TACC3; CCK-8, 72 h; read-out: antiproliferative IC50, RT112. On the procedure:
as §2, §3, §4

Data set [9] can be described thus: Mortality and body weight in xenograft studies. Type of data set: in vivo, CB17‐SCID mice. Conditions: 10 or 20 mg/kg q2d, oral gavage, xenograft mice. From the text:
(§5) All animal studies were approved by the Institutional Animal Care and Use Committee. Male CB17‐SCID mice were purchased from Vital River Laboratory Animal Technology Inc. (Beijing, China). The right flanks of SCID mice were subcutaneously injected with 2 x 10^6 Ba/F3‐FGFR1, Ba/F3‐FGFR1‐V561F, or Ba/F3‐FGFR1‐V561M cells, respectively. When the average tumor volume reached 100–200 mm^3, mice bearing tumor were randomly divided into groups and treated with compounds or vehicle. All the compounds were suspended in 0.5% CMC‐Na aqueous solution. […] The body weight and tumor volume of animals were measured once every 2 days. Tumor volumes were calculated as L×W×W/2, where L and W are the length and width of the tumor, respectively. At the experiment terminal, tumor tissues were dissected, paraffin embedded, and sectioned for hematoxylin and eosin (H&E), immunohistochemistry (IHC), and TUNEL analysis.

Data set [10] deals with FGFR1 in all Ba/F3 stable cells. Put plainly: Western blot of total FGFR1 protein. Type of data set: cell-based. Conditions: 4 h. How it is done:
as §1
However, its effects on FGFR1 downstream signal pathway in A549 cells were very weak as a negative control.

Data set [11] has as its system Ba/F3‐FGFR1‐V561M xenograft. Description: Mouse xenograft tumor model. Type of data set: in vivo, CB17‐SCID mice. Conditions: 20 mg/kg, p.o., q2d (b60 prints Bid).
Description: as §5

Data set [12] deals with T1, FGFR2‐N550K (Homo sapiens, UniProt P21802, N549K).
T1 construct: purchased KINOMEscan™ (commercial assay)
T1 sequence (P21802 22-822 isoform P21802-3 N550K limits assumed): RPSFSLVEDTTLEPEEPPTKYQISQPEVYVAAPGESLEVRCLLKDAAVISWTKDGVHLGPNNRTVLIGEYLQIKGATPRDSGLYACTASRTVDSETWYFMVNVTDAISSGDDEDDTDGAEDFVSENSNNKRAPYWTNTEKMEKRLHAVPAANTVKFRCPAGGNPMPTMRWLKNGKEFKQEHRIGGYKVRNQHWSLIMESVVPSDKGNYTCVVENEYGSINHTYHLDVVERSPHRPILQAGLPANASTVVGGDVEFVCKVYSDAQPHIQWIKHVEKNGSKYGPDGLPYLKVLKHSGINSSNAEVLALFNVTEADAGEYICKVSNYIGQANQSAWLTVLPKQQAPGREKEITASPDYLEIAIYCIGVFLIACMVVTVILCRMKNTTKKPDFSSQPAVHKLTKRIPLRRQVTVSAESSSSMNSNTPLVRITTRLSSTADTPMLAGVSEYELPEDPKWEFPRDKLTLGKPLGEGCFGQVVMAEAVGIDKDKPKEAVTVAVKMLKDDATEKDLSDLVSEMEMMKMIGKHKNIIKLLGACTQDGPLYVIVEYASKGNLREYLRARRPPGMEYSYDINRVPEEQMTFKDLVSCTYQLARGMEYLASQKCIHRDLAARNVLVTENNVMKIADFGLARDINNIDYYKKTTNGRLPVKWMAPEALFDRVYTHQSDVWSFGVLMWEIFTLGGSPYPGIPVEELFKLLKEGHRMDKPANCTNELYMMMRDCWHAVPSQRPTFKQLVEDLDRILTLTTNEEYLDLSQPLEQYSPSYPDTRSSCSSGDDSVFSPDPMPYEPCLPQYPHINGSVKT
Put plainly: KINOMEscan binding affinity assay.

Data set [13] has as its system Ba/F3‐FGFR1. Description: Apoptosis assay by flow cytometry (Annexin V / 7-AAD). Type of data set: cell-based. Conditions: Ba/F3‐FGFR1, 100 nM, 48 h. On the procedure: After incubation, cells were collected and washed twice with pre‐cold PBS. About 6 × 10^5 cells were resuspended in 100 μl of 1× BD binding buffer solution (#556454, BD), and then stained with 7‐ADD (#559925, BD) and Annexin V‐PE (#556422, BD) in the dark for 15 min. Finally, 400 μl of 1×BD binding buffer solution were added to stop dyeing. The cells were then measured on a Guava easyCyte flow cytometer (Merck, USA).

Data set [14] has as its target FGFR3 (Homo sapiens, UniProt P22607). Description: KINOMEscan binding affinity assay.
Data set [15] has as its system pAKT in SNU‐16. Description: Western blot of pAKT. Format: cell-based. Particulars: SNU‐16, FGFR2 overexpressed, 3.7 to 300 nM. On the procedure:
as §1

The subject of data set [16] is pAKT in NCI‐H716. Description: Western blot of pAKT. Type of data set: cell-based. Particulars: NCI‐H716, FGFR2 overexpressed, 3.7 to 300 nM. How it is done: as §1
Data set [17] has as its system FGFR1–FGFR3 cell lines. Description: CCK-8 proliferation, cancer cells harboring FGFR aberrations (summary range). Format: cell-based. Conditions: range over cell lines of Table 2; read-out: antiproliferative IC50 values, FGFR1–FGFR3 cell lines. On the procedure:
as §3, §4

In data set [18] the target is T2, FGFR3‐K650E (Homo sapiens, UniProt P22607, K650E).
T2 construct: purchased KINOMEscan™ (commercial assay)
T2 sequence (P22607 23-806 K650E): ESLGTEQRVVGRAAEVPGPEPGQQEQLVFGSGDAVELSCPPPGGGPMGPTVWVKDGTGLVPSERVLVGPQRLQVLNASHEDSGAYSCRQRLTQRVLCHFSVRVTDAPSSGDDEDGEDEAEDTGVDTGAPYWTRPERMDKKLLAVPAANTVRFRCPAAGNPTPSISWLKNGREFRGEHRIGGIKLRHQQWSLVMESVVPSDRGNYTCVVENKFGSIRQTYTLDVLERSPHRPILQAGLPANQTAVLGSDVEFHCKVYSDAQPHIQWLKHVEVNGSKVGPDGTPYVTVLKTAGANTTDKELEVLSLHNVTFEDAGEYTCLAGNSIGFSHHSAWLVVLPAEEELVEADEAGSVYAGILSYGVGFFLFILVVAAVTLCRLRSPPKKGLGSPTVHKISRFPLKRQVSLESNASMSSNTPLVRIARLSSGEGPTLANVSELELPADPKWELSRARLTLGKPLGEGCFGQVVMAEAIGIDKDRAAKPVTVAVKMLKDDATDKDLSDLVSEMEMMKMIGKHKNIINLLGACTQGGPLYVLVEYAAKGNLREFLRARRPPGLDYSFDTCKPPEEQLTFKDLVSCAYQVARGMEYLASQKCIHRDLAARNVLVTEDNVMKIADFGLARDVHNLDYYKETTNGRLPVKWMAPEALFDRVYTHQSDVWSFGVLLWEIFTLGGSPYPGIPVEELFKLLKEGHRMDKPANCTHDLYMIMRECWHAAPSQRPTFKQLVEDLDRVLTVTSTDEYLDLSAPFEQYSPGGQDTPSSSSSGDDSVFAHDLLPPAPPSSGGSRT
Description: KINOMEscan binding affinity assay.

Sequence of FGFR3 (P22607 23-806): as the sequence (P22607 23-806 K650E) above, with E628K counted along it

As usually defined, the IC50 is the midpoint of a concentration-inhibition curve. On to `CCN1CCN(c2ccc(Nc3cc(N(C)C(=O)Nc4c(Cl)c(OC)cc(OC)c4Cl)ncn3)cc2)CC1` [BGJ398], for which the “activation of FGFR1 and its signal pathway” value in data set [1] was “no effects”. Moreover, the IC50 stood at 2700 ± 104 nM in data set [2]; 4.2 ± 0.8 nM in [3]; 19.4 ± 2.5 nM in data set [4]; 18.6 ± 6.3 nM in data set [5]; 17.1 ± 2.4 nM in [6]; 5110 ± 481 nM in [7]. Moreover, the IC50 in data set [8] was 233 ± 76.7 nM.

In general, Kd refers to the constant that tells how readily two partners part at equilibrium. As to `Cc1ccc(C(=O)Nc2ccc(CN3CCN(C)CC3)c(C(F)(F)F)c2)cc1C#Cc1cnc2[nH]ncc2c1` [GZD824], the “mortality and body weight during experiment” value in data set [9] was “no mortality or significant loss of body weight”. Further, the “dose showing obvious degradation of FGFR1” value in data set [10] is recorded as at least 33.3 nM. The “tumor growth inhibition (TGI)” value in data set [11] was determined as 49.8%. Besides, the Kd stood at 17 ± 5.7 nM in [12], 17 ± 1.4 nM in [14] and 11 nM in [18]. The compound further displayed an apoptosis in data set [13] of 65.73%. The “effect on pAKT” value in data set [15] and in [16] was “strongly inhibit” each time. Moreover, the IC50 in data set [17] was 4 to 91 nM; in data set [2], 148 ± 104 nM; in data set [3] it was 4 ± 0.5 nM; in data set [4], 10.8 ± 0.8 nM; in [5] it was 14.4 ± 4.8 nM; in [6], 9.8 ± 1.2 nM. Also, the figures for the IC50 in data set [7] and in [8] were 743 ± 31.8 nM and 91 ± 5.7 nM, respectively.
